Source: ChEMBL document CHEMBL1201862, “PubChem BioAssay data set” (2004)
Each block holds one molecule with its values, some of them ahead of it. The source made the active and inactive calls.

Experiments:
Cytochrome P450 1A2 = biological target: T1, Cytochrome P450 1A2 (Homo sapiens, UniProt P05177);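 further: PubChem cytochrome P450 panel assay, CYP1A2 panel member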
T1 sequence (P05177 whole entry): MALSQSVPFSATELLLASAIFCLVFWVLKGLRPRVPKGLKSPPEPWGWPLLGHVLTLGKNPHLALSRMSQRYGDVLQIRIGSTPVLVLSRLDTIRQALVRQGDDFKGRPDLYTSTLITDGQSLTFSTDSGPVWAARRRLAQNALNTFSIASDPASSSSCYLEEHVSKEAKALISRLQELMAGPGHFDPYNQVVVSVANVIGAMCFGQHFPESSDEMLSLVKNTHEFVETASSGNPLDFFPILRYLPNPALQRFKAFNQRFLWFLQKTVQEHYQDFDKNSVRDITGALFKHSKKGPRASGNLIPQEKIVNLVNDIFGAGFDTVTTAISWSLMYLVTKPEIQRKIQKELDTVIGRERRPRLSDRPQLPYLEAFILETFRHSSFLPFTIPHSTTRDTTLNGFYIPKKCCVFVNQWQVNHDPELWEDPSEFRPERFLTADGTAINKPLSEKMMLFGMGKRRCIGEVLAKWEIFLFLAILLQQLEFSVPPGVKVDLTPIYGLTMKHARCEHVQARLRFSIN

Coagulation factor XII = biological target: T2, Coagulation factor XII (Homo sapiens, UniProt P00748); assay type: functional;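 further: activated factor XIIa alpha cleaving a fluorogenic AMC peptide substrate; inhibitor potency from loss of enzyme activity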
T2 sequence (P00748 whole entry): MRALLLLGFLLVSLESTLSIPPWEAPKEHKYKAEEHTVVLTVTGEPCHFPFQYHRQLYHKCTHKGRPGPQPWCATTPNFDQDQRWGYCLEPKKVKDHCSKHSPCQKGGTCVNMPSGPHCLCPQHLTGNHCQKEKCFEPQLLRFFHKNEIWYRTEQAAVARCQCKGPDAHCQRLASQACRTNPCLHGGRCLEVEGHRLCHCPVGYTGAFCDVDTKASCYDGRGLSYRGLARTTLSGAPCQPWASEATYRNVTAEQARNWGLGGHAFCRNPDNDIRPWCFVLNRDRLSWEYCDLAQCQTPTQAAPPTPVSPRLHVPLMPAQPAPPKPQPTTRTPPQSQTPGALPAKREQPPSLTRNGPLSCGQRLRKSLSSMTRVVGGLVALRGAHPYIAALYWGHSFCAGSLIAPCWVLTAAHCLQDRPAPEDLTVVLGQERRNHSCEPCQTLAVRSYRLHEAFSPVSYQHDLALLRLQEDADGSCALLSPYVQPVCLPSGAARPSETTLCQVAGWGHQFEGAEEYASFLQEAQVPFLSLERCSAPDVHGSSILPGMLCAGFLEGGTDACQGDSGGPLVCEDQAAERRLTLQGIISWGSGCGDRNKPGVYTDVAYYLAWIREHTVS

BJ [1] = assay: cells; assay type: functional, cell-based; details: Homo sapiens
BJ [2] = assay: cytotoxicity toward BJ-TERT fibroblasts, dose response, cell-based, RAS-independent, luminescence (AID 1933); assay type: functional; details: Homo sapiens
[3] = cytotoxicity in HEK-293T NF-kB-Luc cells, dose response, cytotoxicity control for B/T-cell NF-kB inhibitor project, cell-based, uHTS hits (AID 489019); assay type: functional;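 further: IC50 reflects cytotoxicity as loss of cell viability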
Jurkat = assay: antigen receptor-induced NF-kB inhibitors, dose response, Jurkat, luciferase reporter, luminescence, B- and T-cell (AID 489004); assay type: functional, cell-based; details: Homo sapiens;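 further: NF-kB luciferase reporter Jurkat cells stimulated with PMA plus ionomycin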
[4] = cytotoxicity toward DRD oncogenic fibroblasts, dose response, cell-based, non-viral oncogenic, luminescence (AID 1934); assay type: functional; details: Homo sapiens
BJ [5] = assay: cytotoxicity toward BJ-TERT-LT-ST fibroblasts, dose response, cell-based, RAS-independent, luminescence (AID 1935); assay type: functional; details: Homo sapiens;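 further: BJ fibroblasts immortalized with TERT plus LT and ST oncogenes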
[6] = biological target: Beta-2 adrenergic receptor (Homo sapiens, UniProt P07550); assay: beta2AR agonists driving receptor internalization, dose response, cell-based, FAP fluorogen, flow cytometry, cherry pick 1 (AID 588763); assay type: functional
BJ [7] = assay: cytotoxicity toward Ras-transformed BJeLR fibroblasts, dose response, cell-based, alamar blue fluorescence, cherrypicked samples (AID 2631); assay type: functional; details: Homo sapiens;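 further: confirmatory dose-response assay in RAS-dependent BJ fibroblasts engineered with TERT, LT and ST, with cytotoxicity read by fluorescence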
Mu-type opioid receptor = Mu-type opioid receptor (Homo sapiens, UniProt P35372); assay type: functional, cell-based;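 further: U2OS cells with beta-arrestin recruitment to OPRM1 by beta-gal complementation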
[8] = biological target: Peroxisome proliferator-activated receptor gamma/Nuclear receptor coactivator 2 (Homo sapiens, UniProt P37231); assay: (§1) TR-FRET dose response biochemical High Throughput Screening assay for agonists of the steroid receptor coactivator 2 (SRC-2) recruitment by the peroxisome proliferator-activated receptor gamma (PPAR gamma): non-selective agonists. [Related pubchem assays: 1297, 1032 ]; assay type: functional
[9] = biological target: Peroxisome proliferator-activated receptor gamma/Nuclear receptor coactivator 3 (Homo sapiens, UniProt P37231); assay: as §1, with “3 (SRC-3)” for “2 (SRC-2)”, “1301 (Confirmation screen.), 1048 (Primary screen.)]” for “1297, 1032 ]”; assay type: functional
[10] = biological target: T3, Ubiquitin-conjugating enzyme E2 N (Homo sapiens, UniProt P61088); assay type: functional;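 further: Dose-response confirmation in a TR-FRET assay detecting UBC13-driven polyubiquitin chain formation, inhibition measured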
T3 sequence (P61088 whole entry): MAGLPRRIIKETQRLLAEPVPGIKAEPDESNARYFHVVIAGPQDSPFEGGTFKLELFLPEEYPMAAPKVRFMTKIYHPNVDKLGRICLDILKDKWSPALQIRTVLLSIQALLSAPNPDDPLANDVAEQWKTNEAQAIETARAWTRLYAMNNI

[11] = biological target: Peroxisome proliferator-activated receptor gamma/Nuclear receptor coactivator 1 (Homo sapiens, UniProt P37231); assay: as §1, with “1 (SRC-1)” for “2 (SRC-2)”, “assays (depositor defined):AID1300, AID1808, AID504735, AID631]” for “assays: 1297, 1032 ]”; assay type: protein assay
[12] = biological target: 5-hydroxytryptamine receptor 2A (Mus musculus, UniProt P35363); assay type: functional, cell-based;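 further: CHO-K1 cells with tagged receptor and beta-arrestin; agonist potency measured as compound-induced activation of the receptor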
Phosphomannomutase 2 = Phosphomannomutase 2 (Homo sapiens, UniProt O15305); assay: Counter screen SAR assay for PMM2 inhibitors via a fluorescence intensity assay. [Related pubchem assays (depositor defined):AID1545, AID1574]
[13] = biological target: T4, Mannose-6-phosphate isomerase (Homo sapiens, UniProt P34949); assay: PMI enzyme inhibitors, confirmation, biochemical, fluorescence intensity (AID 1535)
T4 sequence (P34949 whole entry): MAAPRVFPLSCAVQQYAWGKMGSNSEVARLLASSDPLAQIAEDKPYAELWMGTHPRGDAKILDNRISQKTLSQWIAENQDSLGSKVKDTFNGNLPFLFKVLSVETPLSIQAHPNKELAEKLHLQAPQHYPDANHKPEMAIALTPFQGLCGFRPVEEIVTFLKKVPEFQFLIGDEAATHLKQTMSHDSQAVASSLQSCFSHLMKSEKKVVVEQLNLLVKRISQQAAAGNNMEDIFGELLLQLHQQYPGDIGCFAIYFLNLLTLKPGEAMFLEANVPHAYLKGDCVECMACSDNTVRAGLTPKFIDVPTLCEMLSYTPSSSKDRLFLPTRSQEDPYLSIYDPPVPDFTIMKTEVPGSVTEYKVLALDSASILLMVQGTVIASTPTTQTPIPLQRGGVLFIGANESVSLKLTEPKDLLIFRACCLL

cells = assay type: functional, cell-based; details: HEK-CNG
[14] = Shn3 3'UTR reporter inhibitors, dose response, cell-based, Clone20 osteoblasts, firefly luciferase, cherry-picked (AID 624132); assay type: functional;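 further: firefly luciferase luminescence from reporter carrying the Shn3 3'UTR in osteoblasts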
[15] = HepG2 cell cytotoxicity, dose response, cytotoxicity control for Shn3 inhibitor project, CellTiter-Glo, cherry-picked (AID 624134); assay type: functional, cell-based
Galanin receptor type 3 = biological target: T5, Galanin receptor type 3 (Homo sapiens, UniProt O60755); assay: Fluorescence-based cell-based primary high throughput dose response assay to identify antagonists of the Galanin Receptor 3 (GalR3).; assay type: functional
T5 sequence (O60755 whole entry): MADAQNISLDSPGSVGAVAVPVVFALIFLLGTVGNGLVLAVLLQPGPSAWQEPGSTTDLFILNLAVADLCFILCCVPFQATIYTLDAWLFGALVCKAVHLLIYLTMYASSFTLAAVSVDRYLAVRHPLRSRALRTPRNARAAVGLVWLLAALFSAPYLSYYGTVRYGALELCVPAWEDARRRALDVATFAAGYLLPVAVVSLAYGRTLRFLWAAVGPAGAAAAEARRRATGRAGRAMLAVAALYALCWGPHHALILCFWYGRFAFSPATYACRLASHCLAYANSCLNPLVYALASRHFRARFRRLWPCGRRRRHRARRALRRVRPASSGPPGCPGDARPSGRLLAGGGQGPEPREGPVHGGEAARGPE

[16] = biological target: T6, COUP transcription factor 2 (Homo sapiens, UniProt P24468); assay: Luminescence-based cell-based high throughput dose response assay to identify inhibitors of COUP-TFII (NR2F2).; assay type: functional;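 further: HEK293 cells transiently cotransfected with COUP-TFII expression vector and reporter; luciferase reporter luminescence driven by COUP-TFII from the pX2-168 reporter plasmid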
T6 sequence (P24468 whole entry): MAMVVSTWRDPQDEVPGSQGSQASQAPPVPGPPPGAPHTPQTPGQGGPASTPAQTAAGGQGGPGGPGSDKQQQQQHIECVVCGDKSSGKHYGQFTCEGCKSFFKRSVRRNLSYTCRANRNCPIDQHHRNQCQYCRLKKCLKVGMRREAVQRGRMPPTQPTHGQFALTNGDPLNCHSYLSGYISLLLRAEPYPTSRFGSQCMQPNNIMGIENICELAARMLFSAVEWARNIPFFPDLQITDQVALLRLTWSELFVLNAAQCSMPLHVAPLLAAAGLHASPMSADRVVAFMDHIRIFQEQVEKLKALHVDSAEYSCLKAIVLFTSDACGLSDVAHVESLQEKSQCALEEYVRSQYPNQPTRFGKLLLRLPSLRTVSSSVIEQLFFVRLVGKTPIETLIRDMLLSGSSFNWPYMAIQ

INS1 = assay: beta cell apoptosis inhibitors, cytokine rescue, dose response, luminescence, retest (AID 449756); assay type: functional, cell-based; details: Rattus norvegicus;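 further: cell death triggered by IL-1 beta plus TNF-alpha plus IFN-gamma mixture; protective hits raise ATP signal compared with cytokine alone wells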
[17] = control 3'UTR Renilla luciferase suppression, dose response, counter-screen for Shn3 inhibitor project, cell-based, Clone20-Shn3RL, cherry-picked (AID 624133); assay type: functional
[18] = biological target: Dual specificity tyrosine-phosphorylation-regulated kinase 1A (Rattus norvegicus, UniProt Q63470); assay type: biochemical, Homo sapiens
[19] = biological target: Dual specificity protein kinase CLK1 (Homo sapiens, UniProt P49759); assay: CLK1 kinase inhibitors, off-target check, dose response, selectivity assay for Dyrk1A inhibitor project, biochemical, cherry-picked samples (AID 588811)
Cytochrome P450 2C19 = Cytochrome P450 2C19 (Homo sapiens, UniProt P33261); assay: Cytochrome panel assay with activity outcomes. Panel member name: p450-cyp2c19 Compounds with AC50 equal or less than 10 uM are considered active; assay type: functional
Cytochrome P450 3A4 = Cytochrome P450 3A4 (Homo sapiens, UniProt P08684);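 further: CYP3A4 tested as one member of a cytochrome P450 panel screen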
Cytochrome P450 2D6 = Cytochrome P450 2D6 (Homo sapiens, UniProt P10635);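 further: CYP2D6 member of a cytochrome P450 panel assay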
Chain of Cytochrome P450 2D6 (P10635 whole entry): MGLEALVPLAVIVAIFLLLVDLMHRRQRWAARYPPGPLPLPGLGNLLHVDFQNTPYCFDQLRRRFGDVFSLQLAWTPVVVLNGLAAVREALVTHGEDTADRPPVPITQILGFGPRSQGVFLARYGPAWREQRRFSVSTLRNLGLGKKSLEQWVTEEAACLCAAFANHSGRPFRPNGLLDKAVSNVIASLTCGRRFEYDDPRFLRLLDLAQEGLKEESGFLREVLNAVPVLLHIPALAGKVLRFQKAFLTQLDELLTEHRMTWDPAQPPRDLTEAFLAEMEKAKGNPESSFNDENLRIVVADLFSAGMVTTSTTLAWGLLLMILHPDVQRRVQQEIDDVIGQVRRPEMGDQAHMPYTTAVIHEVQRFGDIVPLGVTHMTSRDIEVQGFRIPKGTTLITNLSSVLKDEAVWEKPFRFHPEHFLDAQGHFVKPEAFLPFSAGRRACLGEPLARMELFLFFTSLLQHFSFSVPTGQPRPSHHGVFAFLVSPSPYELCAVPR

Chain of Phosphomannomutase 2 (O15305 whole entry): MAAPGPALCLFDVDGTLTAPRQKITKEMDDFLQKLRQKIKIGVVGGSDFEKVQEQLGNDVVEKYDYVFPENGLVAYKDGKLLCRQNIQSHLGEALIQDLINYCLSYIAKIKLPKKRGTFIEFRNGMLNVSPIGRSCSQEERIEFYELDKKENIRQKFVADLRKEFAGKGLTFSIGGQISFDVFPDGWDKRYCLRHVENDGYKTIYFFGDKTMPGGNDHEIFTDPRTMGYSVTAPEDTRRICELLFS
Chain of Cytochrome P450 2C19 (P33261 whole entry): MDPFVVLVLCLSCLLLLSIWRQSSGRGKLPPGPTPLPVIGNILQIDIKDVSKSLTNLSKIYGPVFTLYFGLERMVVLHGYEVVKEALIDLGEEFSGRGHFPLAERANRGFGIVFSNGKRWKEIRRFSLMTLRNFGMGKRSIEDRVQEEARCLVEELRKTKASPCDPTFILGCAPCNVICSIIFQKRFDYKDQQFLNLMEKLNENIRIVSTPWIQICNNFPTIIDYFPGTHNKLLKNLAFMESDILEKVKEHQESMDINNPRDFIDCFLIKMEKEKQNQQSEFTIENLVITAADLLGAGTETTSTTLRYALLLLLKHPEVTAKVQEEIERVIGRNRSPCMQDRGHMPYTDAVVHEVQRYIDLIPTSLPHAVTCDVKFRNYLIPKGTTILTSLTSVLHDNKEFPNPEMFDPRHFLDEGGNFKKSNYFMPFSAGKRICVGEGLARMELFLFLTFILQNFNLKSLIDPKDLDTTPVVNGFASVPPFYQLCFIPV
Chain of Peroxisome proliferator-activated receptor gamma/Nuclear receptor coactivator 2 (P37231 whole entry): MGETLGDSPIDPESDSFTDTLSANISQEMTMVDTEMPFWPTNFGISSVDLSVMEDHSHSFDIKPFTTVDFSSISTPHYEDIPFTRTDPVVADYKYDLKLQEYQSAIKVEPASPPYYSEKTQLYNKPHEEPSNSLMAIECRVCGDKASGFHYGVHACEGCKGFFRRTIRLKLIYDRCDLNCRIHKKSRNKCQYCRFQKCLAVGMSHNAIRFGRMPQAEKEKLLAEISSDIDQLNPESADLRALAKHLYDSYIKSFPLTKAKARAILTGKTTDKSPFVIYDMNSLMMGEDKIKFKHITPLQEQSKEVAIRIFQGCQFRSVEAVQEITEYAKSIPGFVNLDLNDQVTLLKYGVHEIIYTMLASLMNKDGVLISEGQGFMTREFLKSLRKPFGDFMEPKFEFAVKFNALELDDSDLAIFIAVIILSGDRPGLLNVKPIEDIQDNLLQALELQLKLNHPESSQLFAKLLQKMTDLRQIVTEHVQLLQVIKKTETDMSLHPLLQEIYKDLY
Chain of Peroxisome proliferator-activated receptor gamma/Nuclear receptor coactivator 2 (Q15596 whole entry, further chain): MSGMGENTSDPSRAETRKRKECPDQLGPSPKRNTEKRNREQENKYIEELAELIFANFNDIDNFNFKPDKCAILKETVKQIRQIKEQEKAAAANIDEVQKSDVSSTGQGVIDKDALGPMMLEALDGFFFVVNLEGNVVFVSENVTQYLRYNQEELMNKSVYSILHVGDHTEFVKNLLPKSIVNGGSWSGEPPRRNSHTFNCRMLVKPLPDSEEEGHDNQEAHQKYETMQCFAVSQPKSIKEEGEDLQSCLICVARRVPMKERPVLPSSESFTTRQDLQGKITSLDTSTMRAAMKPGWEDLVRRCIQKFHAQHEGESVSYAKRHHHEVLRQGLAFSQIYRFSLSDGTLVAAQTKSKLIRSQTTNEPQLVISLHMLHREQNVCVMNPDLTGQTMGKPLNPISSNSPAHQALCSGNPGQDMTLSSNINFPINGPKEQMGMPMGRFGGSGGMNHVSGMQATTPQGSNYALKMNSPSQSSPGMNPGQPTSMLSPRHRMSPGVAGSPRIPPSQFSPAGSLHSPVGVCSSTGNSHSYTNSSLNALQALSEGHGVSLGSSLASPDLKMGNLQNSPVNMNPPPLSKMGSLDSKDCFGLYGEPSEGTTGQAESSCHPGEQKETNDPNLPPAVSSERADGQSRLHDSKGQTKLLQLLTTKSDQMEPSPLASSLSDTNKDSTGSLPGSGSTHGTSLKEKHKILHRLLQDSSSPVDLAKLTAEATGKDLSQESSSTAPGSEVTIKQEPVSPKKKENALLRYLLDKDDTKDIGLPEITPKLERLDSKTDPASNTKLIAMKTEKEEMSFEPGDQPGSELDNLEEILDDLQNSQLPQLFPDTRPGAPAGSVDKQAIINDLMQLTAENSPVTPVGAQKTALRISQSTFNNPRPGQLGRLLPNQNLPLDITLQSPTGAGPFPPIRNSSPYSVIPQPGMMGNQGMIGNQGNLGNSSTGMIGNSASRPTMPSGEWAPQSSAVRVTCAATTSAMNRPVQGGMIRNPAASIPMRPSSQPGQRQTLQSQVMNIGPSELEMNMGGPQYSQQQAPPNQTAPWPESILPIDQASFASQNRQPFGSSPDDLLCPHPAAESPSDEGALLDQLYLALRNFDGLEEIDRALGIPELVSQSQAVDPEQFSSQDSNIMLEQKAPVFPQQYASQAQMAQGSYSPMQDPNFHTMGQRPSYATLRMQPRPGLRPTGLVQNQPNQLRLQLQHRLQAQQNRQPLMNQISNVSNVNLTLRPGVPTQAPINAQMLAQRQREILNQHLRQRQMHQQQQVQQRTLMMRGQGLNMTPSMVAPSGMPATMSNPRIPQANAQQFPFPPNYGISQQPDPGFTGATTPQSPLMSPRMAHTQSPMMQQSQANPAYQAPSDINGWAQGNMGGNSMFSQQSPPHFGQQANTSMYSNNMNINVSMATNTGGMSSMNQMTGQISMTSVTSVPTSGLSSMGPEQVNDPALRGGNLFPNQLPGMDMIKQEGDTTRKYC
Chain of Cytochrome P450 3A4 (P08684 whole entry): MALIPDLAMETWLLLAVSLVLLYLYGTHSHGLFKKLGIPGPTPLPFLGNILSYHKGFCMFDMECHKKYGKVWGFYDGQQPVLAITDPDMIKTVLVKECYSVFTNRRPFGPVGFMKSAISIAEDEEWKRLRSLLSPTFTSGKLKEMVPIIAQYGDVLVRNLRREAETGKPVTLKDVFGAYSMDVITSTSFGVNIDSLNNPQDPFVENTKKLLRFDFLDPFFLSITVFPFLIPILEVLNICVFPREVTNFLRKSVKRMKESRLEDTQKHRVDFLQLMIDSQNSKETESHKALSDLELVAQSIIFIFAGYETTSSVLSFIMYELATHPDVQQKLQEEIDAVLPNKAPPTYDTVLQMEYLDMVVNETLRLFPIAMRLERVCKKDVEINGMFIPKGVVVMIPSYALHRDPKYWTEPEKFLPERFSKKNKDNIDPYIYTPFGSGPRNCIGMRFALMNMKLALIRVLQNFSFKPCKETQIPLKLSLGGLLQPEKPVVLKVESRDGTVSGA
Chain of Mu-type opioid receptor (P35372 whole entry): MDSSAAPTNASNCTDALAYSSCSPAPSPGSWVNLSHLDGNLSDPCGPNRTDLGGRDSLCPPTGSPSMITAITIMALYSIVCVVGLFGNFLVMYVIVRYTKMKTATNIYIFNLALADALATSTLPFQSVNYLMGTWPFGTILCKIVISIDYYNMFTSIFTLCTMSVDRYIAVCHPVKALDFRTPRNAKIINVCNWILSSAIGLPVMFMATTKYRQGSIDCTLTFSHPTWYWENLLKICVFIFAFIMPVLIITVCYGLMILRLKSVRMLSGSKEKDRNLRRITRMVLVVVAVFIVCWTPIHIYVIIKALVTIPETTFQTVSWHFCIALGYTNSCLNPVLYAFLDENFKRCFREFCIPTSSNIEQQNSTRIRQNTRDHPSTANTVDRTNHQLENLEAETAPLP
Chain of Beta-2 adrenergic receptor (P07550 whole entry): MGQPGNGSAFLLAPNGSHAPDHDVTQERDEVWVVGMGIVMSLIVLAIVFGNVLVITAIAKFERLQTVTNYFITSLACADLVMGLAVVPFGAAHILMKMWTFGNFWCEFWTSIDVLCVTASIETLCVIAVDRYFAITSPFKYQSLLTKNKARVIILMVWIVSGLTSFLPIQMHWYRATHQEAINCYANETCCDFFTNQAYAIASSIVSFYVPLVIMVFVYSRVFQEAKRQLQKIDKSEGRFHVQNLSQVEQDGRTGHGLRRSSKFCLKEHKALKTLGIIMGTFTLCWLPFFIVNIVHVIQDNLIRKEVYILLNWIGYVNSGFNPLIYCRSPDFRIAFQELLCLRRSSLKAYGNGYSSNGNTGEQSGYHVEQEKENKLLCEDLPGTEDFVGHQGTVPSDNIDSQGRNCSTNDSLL
Chain of Dual specificity protein kinase CLK1 (P49759 whole entry): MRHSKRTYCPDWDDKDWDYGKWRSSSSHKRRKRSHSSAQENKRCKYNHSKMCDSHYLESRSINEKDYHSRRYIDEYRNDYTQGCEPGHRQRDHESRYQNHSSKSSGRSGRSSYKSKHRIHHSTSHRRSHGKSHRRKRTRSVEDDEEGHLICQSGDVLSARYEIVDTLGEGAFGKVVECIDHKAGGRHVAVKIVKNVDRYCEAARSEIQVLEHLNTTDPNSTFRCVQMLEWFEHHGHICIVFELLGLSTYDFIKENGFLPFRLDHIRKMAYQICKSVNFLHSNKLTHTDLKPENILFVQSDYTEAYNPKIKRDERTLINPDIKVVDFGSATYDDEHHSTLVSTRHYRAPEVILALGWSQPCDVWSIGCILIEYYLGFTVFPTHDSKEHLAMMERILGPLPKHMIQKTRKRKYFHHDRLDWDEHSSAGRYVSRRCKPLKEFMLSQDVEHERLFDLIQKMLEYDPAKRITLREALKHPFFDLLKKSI

Compound: COc1ccc(C(=O)N2CCC3(CCCN(C(=O)NC(C)C)C3)CC2)cc1
AC50 (Cytochrome P450 1A2): inactive

IC50 (Coagulation factor XII): > 50 µM (inactive)
Compound: CC(=O)Nc1nonc1NC(=O)CSc1ccccn1

Compound: CC1CCCN(c2ccc([N+](=O)[O-])cc2C(=O)c2ccccc2)C1 (stereo not drawn)
EC50 (BJ [1]): 1.32 µM (active)
EC50 (BJ [2]): 1.27 µM (active)
IC50 [3]: > 80 µM (inactive)
IC50 (Jurkat): 40.6 µM (inactive)
EC50 [4]: 1.29 µM (active)
EC50 (BJ [5]): 0.657 µM (inconclusive)
EC50 [6]: 12.2 µM (inactive)
EC50 (BJ [7]): 0.314 µM (active)

EC50 (Mu-type opioid receptor): 92.6 µM (inactive)
EC50 [8]: > 79.4 µM (not active)
EC50 [9]: > 79.4 µM (not active)
IC50 [10]: > 20 µM (inactive)
EC50 [11]: > 79.4 µM (inactive)
EC50 [12]: 0.0169 µM (active)
Compound: CCn1c(=O)cc(SCC(=O)NCCCN2CCN(c3ccccc3F)CC2)c2ccccc21

IC50 (Phosphomannomutase 2): > 100 µM (inactive)
IC50 [13]: > 100 µM (inactive)
Compound: Cc1ccc(/N=c2\ssnc2Cl)nc1

Compound: CCOc1cc(S(=O)(=O)NCc2ccncc2)ccc1Cl
EC50 (cells): > 29.9 µM (inactive)
AC50 [14]: < 0.26 µM (active)
IC50 [3]: > 80 µM (inactive)
IC50 (Jurkat): > 80 µM (inactive)
AC50 [15]: 0.45 µM (active)
IC50 (Galanin receptor type 3): 0.581 µM (active)
IC50 [16]: 2.29 µM (active)
AC50 (INS1): 0.848 µM (active)
AC50 [17]: < 0.26 µM (active)

AC50 [18]: 3.85 µM (active)
AC50 [19]: 10.4 µM (active)
Compound: O=C(COc1ccccc1)Nc1cccc(-c2cn3cccnc3n2)c1

AC50 (Cytochrome P450 2C19): inactive
AC50 (Cytochrome P450 3A4): inconclusive
AC50 (Cytochrome P450 2D6): inactive
AC50 (Cytochrome P450 1A2): inactive
Compound: O=C([O-])Cc1ccccc1Nc1c(Cl)cccc1Cl.[Na+] [DICLOFENAC SODIUM]
